In US20230183193A1, “4-DIFLUOROMETHYL BENZOYL AMIDES WITH HERBICIDAL ACTION” (BAYER CROPSCIENCE AKTIENGESELLSCHAFT, priority 2017, published 2023):

Key:
Assay type in all cases: in vivo
Viola tricolor [1] = assay: Pre-emergence herbicidal action, VIOTR; settings: for Herbicidal efficacy against VIOTR: comparison with WO 2011035874, Table H
Procedure, shortened: (§1)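 Percent herbicidal activity rated by eye 3 weeks after pre-emergence soil-surface application, compared with untreated pots. Seeds sat under sandy loam; sprays carried 0.2% wetting agent.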

Matricaria inodora [2] = assay: Post-emergence herbicidal action, MATIN; settings: 80 g/ha
Description: (§2) Seeds of monocotyledonous and dicotyledonous weed and crop plants are laid out in sandy loam soil in wood-fiber pots, covered with soil and cultivated in a greenhouse under good growth conditions. 2 to 3 weeks after sowing, the test plants are treated at the one-leaf stage. The compounds of the invention, formulated in the form of wettable powders (WP) or as emulsion concentrates (EC), are then sprayed onto the green parts of the plants in the form of an aqueous suspension or emulsion at a water application rate equating to […], with addition of 0.2% wetting agent. After the test plants have been left to stand in the greenhouse under optimal growth conditions for about 3 weeks, the action of the preparations is assessed visually in comparison to untreated controls (herbicidal action in percent (%): 100% activity=the plants have died, 0% activity=like control plants). […] At the same time, inventive compounds leave Gramineae crops such as barley, wheat, rye, millet/sorghum, corn or rice virtually undamaged when applied post-emergence, even at high active compound dosages. In addition, some substances are also harmless to dicotyledonous crops such as soya, cotton, oilseed rape, sugar beet or potatoes. Some of the compounds according to the invention have high selectivity and are therefore suitable for controlling unwanted vegetation in agricultural crops by the post-emergence method. The data of Tables C and D below illustrate, in an exemplary manner, the […] herbicidal action of the compounds according to the invention, the herbicidal activity being stated in percent.
(§3) For comparison, the herbicidal activity of numerous compounds according to the invention was tested with the structurally closest compounds known from the documents WO 2011/035874, WO 2012/028579 and WO 2012/126932, by the pre- and post-emergence method.

Amaranthus retroflexus [3] = assay: Pre-emergence herbicidal action, AMARE; settings: for Herbicidal efficacy against AMARE: comparison with WO 2011035874, Table H
Procedure, shortened: as §1

Cyperus serotinus = assay: Pre-emergence herbicidal action, CYPES; settings: for Herbicidal efficacy against CYPES: comparison with WO 2011035874, Table G
Procedure, shortened: as §1

Polygonum convolvulus = assay: Pre-emergence herbicidal action, POLCO; settings: comparison with WO 2011035874, Table H
Procedure, shortened: as §1

Stellaria media [4] = assay: Post-emergence herbicidal action, STEME; settings: 80 g/ha
Procedure, shortened: (§4)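 Herbicidal effect is rated visually as percent versus untreated plants (100% = dead, 0% = like control) about 3 weeks after spraying. Plants were sown in sandy loam in the greenhouse and sprayed on green parts at the one-leaf stage, 2 to 3 weeks post-sowing.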

Matricaria inodora [5] = assay: Pre-emergence herbicidal action, MATIN; settings: dosage 320 g/ha, scored visually after 3 weeks vs untreated controls
Procedure, shortened: as §1

Stellaria media [6] = assay: Pre-emergence herbicidal action, STEME; settings: for Herbicidal efficacy against STEME: comparison with WO 2011035874, Table H
Procedure, shortened: as §1

Veronica persica [7] = assay: Pre-emergence herbicidal action, VERPE; settings: comparison with WO 2011035874, Table H
Text: (§5) 1. Pre-Emergence Herbicidal Action Against Harmful Plants Seeds of monocotyledonous and dicotyledonous weed plants and crop plants are laid out in sandy loam soil in wood-fiber pots and covered with soil. The compounds of the invention, formulated in the form of wettable powders (WP) or as emulsion concentrates (EC), are then applied to the surface of the covering soil in the form of an aqueous suspension or emulsion at a water application rate equating to […], with addition of 0.2% wetting agent. After the treatment, the pots are placed in a greenhouse and kept under good growth conditions for the trial plants. The damage to the test plants is scored visually after a test period of 3 weeks by comparison with untreated controls (herbicidal activity in percent (%): 100% activity=the plants have died, 0% activity=like control plants).
as §3

Abutilon theophrasti [8] = assay: Pre-emergence herbicidal action, ABUTH; settings: for Herbicidal efficacy against ABUTH: comparison with WO 2011035874, Table G
Procedure, shortened: as §1

Veronica persica [9] = assay: Post-emergence herbicidal action, VERPE; settings: 80 g/ha, comparison with WO 2011035874, Table E
Description: as §2, §3

Alopecurus myosuroides = assay: Pre-emergence herbicidal action, ALOMY; settings: comparison with WO 2011035874, Table G
Procedure, shortened: as §1

Amaranthus retroflexus [10] = assay: Post-emergence herbicidal action, AMARE; settings: 80 g/ha
Procedure, shortened: as §4

Viola tricolor [11] = assay: Post-emergence herbicidal action, VIOTR; settings: 80 g/ha
Procedure, shortened: as §4

Setaria viridis = assay: Pre-emergence herbicidal action, SETVI; settings: for Herbicidal efficacy against SETVI: comparison with WO 2011035874, Table G
Procedure, shortened: as §1

ECHCG = assay: Pre-emergence herbicidal action, ECHCG; settings: comparison with WO 2011035874, Table G
Text: as §5

Abutilon theophrasti [12] = assay: Post-emergence herbicidal action, ABUTH; settings: 80 g/ha
Procedure, shortened: as §4

Avena fatua = assay: Pre-emergence herbicidal action, AVEFA; settings: comparison with WO 2011035874, Table G
Procedure, shortened: as §1

Pharbitis purpureum = assay: Post-emergence herbicidal action, PHBPU; settings: 80 g/ha
Procedure, shortened: as §4

[13] = dosage 320 g/ha, scored visually after 3 weeks vs untreated controls
[14] = comparison with WO 2011035874, Table E
[15] = comparison with WO2011035874, Table F

`CSc1c(C(F)F)ccc(C(=O)Nc2nonc2C)c1C` [Example 5-1] was tested, and the “Herbicidal efficacy against VIOTR” value (Viola tricolor [1]; 80 g/ha) was 100%, the “Herbicidal efficacy against VIOTR” value (Viola tricolor [1]; 320 g/ha) was 100% and the “herbicidal activity VIOTR” value (Viola tricolor [1]; [13]) was 100%. The “Herbicidal efficacy against MATIN” value (Matricaria inodora [2]; [14]) was 40%, the “Herbicidal efficacy against MATIN” value (Matricaria inodora [2]; [15]) was 40% and the “Herbicidal efficacy against AMARE” value (Amaranthus retroflexus [3]; 80 g/ha) was 100%. The “Herbicidal efficacy against AMARE” value (Amaranthus retroflexus [3]; 320 g/ha) was 100%, the “herbicidal activity AMARE” value (Amaranthus retroflexus [3]; [13]) was 100% and the “Herbicidal efficacy against CYPES” value (Cyperus serotinus; 80 g/ha) was 50%. For the same molecule, the “Herbicidal efficacy against CYPES” value (Cyperus serotinus; 320 g/ha) was 80%, the “herbicidal activity CYPES” value (Cyperus serotinus; [13]) was 80% and the “Herbicidal efficacy against POLCO” value (Polygonum convolvulus; 80 g/ha) was 80%. For the same molecule, the “Herbicidal efficacy against POLCO” value (Polygonum convolvulus; 320 g/ha) was 100%, the “Herbicidal activity STEME” value (Stellaria media [4]; Table D) was 100% and the “Herbicidal efficacy against STEME” value (Stellaria media [4]; [14]) was 100%. The “Herbicidal efficacy against STEME” value (Stellaria media [4]; [15]) was 100%, the “herbicidal activity MATIN” value (Matricaria inodora [5]) was 100% and the “Herbicidal efficacy against STEME” value (Stellaria media [6]; 80 g/ha) was 80%. The “Herbicidal efficacy against STEME” value (Stellaria media [6]; 320 g/ha) was 90%, the “Herbicidal activity STEME” value (Stellaria media [6]; [13]) was 90% and the “Herbicidal efficacy against VERPE” value (Veronica persica [7]; 80 g/ha) was 100%. For the same molecule, the “Herbicidal efficacy against VERPE” value (Veronica persica [7]; 320 g/ha) was 100%, the “Herbicidal efficacy against ABUTH” value (Abutilon theophrasti [8]; 80 g/ha) was 100% and the “Herbicidal efficacy against ABUTH” value (Abutilon theophrasti [8]; 320 g/ha) was 100%. The “herbicidal activity ABUTH” value (Abutilon theophrasti [8]; [13]) was 100%, the “Herbicidal efficacy against VERPE” value (Veronica persica [9]) was 100% and the “Herbicidal efficacy against ALOMY” value (Alopecurus myosuroides; 80 g/ha) was 30%. The “Herbicidal efficacy against ALOMY” value (Alopecurus myosuroides; 320 g/ha) was 40%, the “herbicidal activity AMARE” value (Amaranthus retroflexus [10]; Table D) was 80% and the “Herbicidal efficacy against AMARE” value (Amaranthus retroflexus [10]; [14]) was 80%. The “herbicidal activity VIOTR” value (Viola tricolor [11]; Table D) was 100%, the “Herbicidal efficacy against VIOTR” value (Viola tricolor [11]; [14]) was 100% and the “Herbicidal efficacy against VIOTR” value (Viola tricolor [11]; [15]) was 100%. The “Herbicidal efficacy against SETVI” value (Setaria viridis; 80 g/ha) was 80%, the “Herbicidal efficacy against SETVI” value (Setaria viridis; 320 g/ha) was 100% and the “herbicidal activity SETVI” value (Setaria viridis; [13]) was 100%. The “Herbicidal efficacy against ECHCG” value (ECHCG; 80 g/ha) was 80%, the “Herbicidal efficacy against ECHCG” value (ECHCG; 320 g/ha) was 100% and the “herbicidal activity ABUTH” value (Abutilon theophrasti [12]; Table D) was 100%. For the same molecule, the “Herbicidal efficacy against ABUTH” value (Abutilon theophrasti [12]; [14]) was 100%, the “Herbicidal efficacy against ABUTH” value (Abutilon theophrasti [12]; [15]) was 100% and the “Herbicidal efficacy against AVEFA” value (Avena fatua; 80 g/ha) was 30%. For the same molecule, the “Herbicidal efficacy against AVEFA” value (Avena fatua; 320 g/ha) was 60%, the “Herbicidal activity PHBPU” value (Pharbitis purpureum; Table D) was 90% and the “Herbicidal efficacy against PHBPU” value (Pharbitis purpureum; [14]) was 90%. The “Herbicidal efficacy against PHBPU” value (Pharbitis purpureum; [15]) was 90%.
